Results from ChEMBL document CHEMBL1147392, “Antimicrobial compounds from Petalostemum purpureum” (1993).
In brackets after ≈: the same amount, converted by molar mass.

Columns and labels:
[1] = test system: Mycobacterium intracellulare; assay: Antimicrobial activity against Mycobacterium intracellular ATCC 23068 by twofold serial macrobroth dilution assay; assay type: functional
Bacillus subtilis = assay: Antimicrobial activity against Bacillus subtilis ATCC 6633 by twofold serial macrobroth dilution assay; assay type: functional
Escherichia coli = assay: Antimicrobial activity against Escherichia coli ATCC 10536 by twofold serial macrobroth dilution assay; assay type: functional
Staphylococcus aureus = assay: Antimicrobial activity against Staphylococcus aureus ATCC 6538 by twofold serial macrobroth dilution assay
Candida albicans = assay: Antimicrobial activity against Candida albicans NIH B311 by twofold serial macrobroth dilution assay; assay type: functional
Cryptococcus neoformans = assay: Antimicrobial activity against Cryptococcus neoformans ATCC 32264 by twofold serial macrobroth dilution assay; assay type: functional

Row | Structure (SMILES) | MIC [1] | MIC (Bacillus subtilis) | MIC (Escherichia coli) | MIC (Staphylococcus aureus) | MIC (Candida albicans) | MIC (Cryptococcus neoformans)
1 | CN[C@@H]1[C@H](O[C@H]2[C@H](O[C@H]3[C@H](O)[C@@H](O)[C@H](N=C(N)N)[C@@H](O)[C@@H]3N=C(N)N)O[C@@H](C)[C@]2(O)C=O)O[C@@H](CO)[C@H](O)[C@H]1O [STREPTOMYCIN] | 1.56 µg/mL (≈ 2.68 µM) | 1.56 µg/mL (≈ 2.68 µM) | 3.12 µg/mL (≈ 5.36 µM) | 6.25 µg/mL (≈ 10.7 µM) |  | 
2 | COc1cc(OC)c2c(c1CC=C(C)C)O[C@H](c1c(CC=C(C)C)cc(OC)c(OC)c1CC=C(C)C)[C@@H](O)C2=O | 12.5 µg/mL (≈ 22.1 µM) |  |  | 12.5 µg/mL (≈ 22.1 µM) | 100 µg/mL (≈ 177 µM) | 
3 | CC(C)=CCc1cc(O)c(O)c(CC=C(C)C)c1[C@H]1Oc2c(CC=C(C)C)c(O)cc(O)c2C(=O)[C@@H]1O [PETALOSTEMUMOL] | 6.25 µg/mL (≈ 12.3 µM) | 0.78 µg/mL (≈ 1.53 µM) | 6.25 µg/mL (≈ 12.3 µM) | 3.12 µg/mL (≈ 6.13 µM) | 12.5 µg/mL (≈ 24.6 µM) | 25 µg/mL (≈ 49.2 µM)
4 | COc1cc(CC=C(C)C)c(-c2oc3c(CC=C(C)C)c(OC)cc(OC)c3c(=O)c2OC)c(CC=C(C)C)c1OC | 25 µg/mL (≈ 43.3 µM) |  |  | 12.5 µg/mL (≈ 21.7 µM) | 25 µg/mL (≈ 43.3 µM) | 
5 | COc1cc(CC=C(C)C)c([C@H]2Oc3c(CC=C(C)C)c(OC)cc(O)c3C(=O)[C@@H]2O)c(CC=C(C)C)c1O | 25 µg/mL (≈ 46.6 µM) |  |  |  |  | 
6 | C[C@@H]1[C@H](O)[C@@H](C)/C=C/C=C/C=C/C=C/C=C/C=C/C=C/[C@H](O[C@@H]2O[C@H](C)[C@@H](O)[C@H](N)[C@@H]2O)C[C@@H]2O[C@](O)(C[C@@H](O)C[C@@H](O)[C@H](O)CC[C@@H](O)C[C@@H](O)CC(=O)O[C@H]1C)C[C@H](O)[C@H]2C(=O)O [AMPHOTERICIN B] |  |  |  |  | 0.39 µg/mL (≈ 0.422 µM) | 0.2 µg/mL (≈ 0.216 µM)
